This is an account of results in PMC9769694, “Discovery of Two Inhibitors of the Type IV Pilus Assembly ATPase PilB as Potential Antivirulence Compounds” (Microbiology Spectrum, 2022).

A value given as a limit tells only on which side of the number the result lay.

One assay deals with Escherichia coli. The experiment in a line: Growth in liquid culture. The assay is classed as cell-based. Conditions: up to 512 μM (highest tested), data not shown. An excerpt:
These include many bacteria with alarming prevalence for causing antibiotic-resistant infection ([12]). […] This is important because, for the development of antivirulence chemotherapies, the small molecules should not have an inhibitory effect on bacterial growth. Otherwise, they would select for resistance, just like antibiotics. From a chemical structure perspective, levodopa is 3,4-dihydroxyphenylalanine (Fig. 2), or phenylalanine with two hydroxyl groups. […] These preliminary studies of structure and activity relationships are consistent with benserazide and levodopa being specific inhibitors of PilB. As mentioned earlier, work with trifluoperazine ([25]) and P4MP4 ([26], [27]) has provided the proof of principle for antivirulence therapies with anti-T4P compounds. It is also encouraging that a compound targeting the adhesin function of the type 1 pilus of the uropathogenic E. coli (UPEC) ([47]) has moved to the clinical trial phase in the drug development pipeline ([48]).

Assay [1] deals with A. nosocomialis biofilm formation. Put plainly: Biofilm formation, microplate assay with crystal violet staining. Conditions: WT, P < 0.05. It counts as cell-based, Acinetobacter nosocomialis. An excerpt:
The inhibitors may thus interact with conserved features of the PilB ATPase family. A. nosocomialis PilB ([19]), whose N terminus is not similar to the MshEN domain (data not shown), shares ~53% identity and ~74% homology with MxPilB and MC3PilB in the ATPase domain (Fig. S1). We analyzed whether benserazide and levodopa could impact the T4P-powered twitching motility ([19], [44]) of A. nosocomialis (Fig. 7), an opportunistic pathogen in the Acinetobacter calcoaceticus-Acinetobacter baumannii (ACB) complex ([45]). As shown in Fig. 7A and B and Fig. S7, benserazide and levodopa impede the twitching motility of WT A. nosocomialis in a concentration-dependent manner.
FIG 7 Benserazide and levodopa inhibit Acinetobacter nosocomialis twitching motility and biofilm formation. […] (C and D) Biofilms formed by A. nosocomialis with (C) benserazide or (D) levodopa were analyzed by a microplate assay with crystal violet (CV) staining. […]
The A. nosocomialis wild-type M2 strain and an isogenic pilA deletion (ΔpilA) mutant ([19], [46]) were used in this study. […] The twitching motility of the M2 strain of A. nosocomialis was analyzed with 1% crystal violet (CV) for staining, and twitching areas were used as measures of motility as previously described ([46]). […] A. nosocomialis biofilm formation was analyzed using microplates and CV staining as previously described ([53], [54]). […]

Another assay concerns M. xanthus T4P assembly. The experiment in a line: T4P assembly, dot blot of T4P fractions with anti-pilin antibodies. The assay is classed as cell-based, Myxococcus xanthus. The note with it: strain YZ603 (ΔdifE), 16-128 μM tested, P < 0.05. The method, then: Alternatively, they may inhibit other processes such as pilin production or T4P retraction. […] Briefly, pre-existing pili were sheared off and separated from cells by vortexing and centrifugation. These shaved or unpiliated cells were allowed to assemble new T4P in the presence or absence of a PilB inhibitor. T4P fractions were prepared and analyzed by dot blotting with anti-pilin antibodies as a measure of T4P levels ([28]). […] As such, the T4P fraction represents the level of T4P assembly without complication from T4P retraction ([28]).
Piliation levels of the M. xanthus strain YZ603 (ΔdifE) ([52]) were analyzed by dot-blotting with anti-PilA antibodies as previously described ([28]). This study included a fraction representing the “Basal” T4P levels for a given treatment. This is the T4P fraction from sheared cells mixed with an inhibitor and pre-equilibrated on ice for 10 min before the cells were incubated at 32°C for 20 min to allow T4P regrowth or assembly. These fractions were used as controls and subtracted as the baseline in data analysis.

A further assay deals with M. xanthus motility. The experiment in a line: Colony expansion of S-motile strains on hard agar. It counts as cell-based, Myxococcus xanthus. The note with it: strains YZ1674 and YZ2232, P < 0.05. An excerpt:
On the other hand, YZ1674 and YZ2232, which have both A and S motility, were affected in their expansion on hard agar by both compounds (Fig. S4 and S5) at concentrations similar to those on soft agar. Indeed, the results with hard agar plates mirror those with soft agar. […] Because neither benserazide nor levodopa had any effect on A motility (Fig. S3C and D), the net differences on hard agar at different concentrations of the inhibitor (Fig. S4) can be viewed as confirmation of its effect on S motility (Fig. 5). […] It is plausible that this inhibition is attributable to their effects on the PilB ATPase in vivo.
M. xanthus was grown and maintained at 32°C in Casitone-yeast extract (CYE) medium ([49]). Motility assays were conducted with strains DK10416 (ΔpilB) ([40]), YZ1674 (ΔpilB att::MxpilB) ([50]), and YZ2232 (ΔpilB att::MC3pilB) ([30], [51]) as previously described ([28]). One modification was that 10% India ink was included in the cell suspension to mark the initial spot on agar plates. All experiments were conducted in quintuplicates and the diameter of the initial spot, as marked by India ink, was subtracted for data analysis.

As to `NC(CO)C(=O)NNCc1ccc(O)c(O)c1O` (centres unmarked) [benserazide], the “effect on growth in liquid culture” value in the assay on Escherichia coli is “neither benserazide nor levodopa had any discernible effect on the growth”. The “concentration significantly reducing biofilm formation” value in assay [1] was not below 32 µM. Besides, the “concentration giving statistically significant decrease in T4P assembly” value in the assay with M. xanthus T4P assembly was not below 16 µM. The “concentration giving statistically significant reduction of expansion on hard agar” value in the assay on M. xanthus motility was not below 8 µM.

On to `N[C@@H](Cc1ccc(O)c(O)c1)C(=O)O` [levodopa, 3,4-dihydroxyphenylalanine], for which, in the assay on Escherichia coli, the “effect on growth in liquid culture” value is on record as “neither benserazide nor levodopa had any discernible effect on the growth”. For the same molecule, in assay [1], the “concentration significantly reducing biofilm formation” value is not below 32 µM. Besides, in the assay on M. xanthus T4P assembly, the “concentration giving statistically significant decrease in T4P assembly” value was not below 32 µM. Besides, in the assay with M. xanthus motility, the “concentration giving statistically significant reduction of expansion on hard agar” value was not below 32 µM.
